According to publication PMC6828666, “Discovery of holoenzyme-disrupting chemicals as substrate-selective CK2 inhibitors” (Scientific Reports, 2019):

Legend:
CK2α/CK2β interaction = CK2α/CK2β interaction (Homo sapiens, UniProt P68400); assay: SPR competition study of MBP-CK2β binding to GST-CK2α; conditions: 70 μM
Description: SPR competition studies (Fig. 2i) were performed using a BIAcore 3000 instrument (BIAcore AB) equipped with a CM5 sensor chip (BIAcore AB). After activation with a solution of N-hydroxysuccinimide and N-ethyl-N-(dimethylaminopropyl)carbodiimide hydrochloride (coupling solution BIAcore AB), the anti-GST antibody diluted at 30 μg/ml in 10 mM acetate buffer pH 5.0 was injected at a flow rate of 5 μL/min for 7 min. All the surfaces were blocked with a 3 min injection at 10 μL/min of 1 M ethanolamine, pH 8.0. GST-CK2α (50 μg/ml) was immobilized on the surface at a flow rate of 5 μL/min in HBS (10 mM Hepes pH 7.3, 0.15 M NaCl, 3 mM EDTA, 0.005% polysorbate 20). MBP-CK2β diluted at 50 μg/ml in HBS buffer was injected over the surface at a flow rate of 5 μL/min in presence of various compound 1 concentration. Regeneration of the surfaces was achieved by injection of 10 mM glycine-HCl pH 2.2. SPR binding studies (Supplementary Fig. S7) were performed using a Reichert SR7000DC instrument optical biosensor (Reichert Technologies) equipped with a CMD500m sensor chip obtained from XanTec Bioanalytics. CK2α was immobilized by a capturing approach using a monoclonal anti-GST antibody (27 kDa, Clone GST-R 6G9 produced in rat, SAB4200055 Sigma Aldrich). […]

CK2α2β2 holoenzyme = target: T1, CK2α2β2 holoenzyme (Homo sapiens, UniProt P68400); assay: Olig2 phosphorylation assay (CK2β-dependent protein substrate); type: biochemical; conditions: 50 μM compound; GST-Olig-2, CK2α, increasing CK2β
T1 construct: made in house; host or cells: Escherichia coli (CK2α)
T1 sequence (P68400 whole entry): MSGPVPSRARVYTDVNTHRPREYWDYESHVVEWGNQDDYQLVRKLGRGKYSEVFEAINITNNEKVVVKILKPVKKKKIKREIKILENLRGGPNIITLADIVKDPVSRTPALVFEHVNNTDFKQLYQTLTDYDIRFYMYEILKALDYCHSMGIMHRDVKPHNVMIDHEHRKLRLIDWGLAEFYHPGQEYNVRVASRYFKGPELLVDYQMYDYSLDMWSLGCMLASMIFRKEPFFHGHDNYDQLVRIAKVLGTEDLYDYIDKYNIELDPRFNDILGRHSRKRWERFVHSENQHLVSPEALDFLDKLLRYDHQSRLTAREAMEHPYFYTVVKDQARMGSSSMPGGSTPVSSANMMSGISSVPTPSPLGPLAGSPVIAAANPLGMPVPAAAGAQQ
Description: For Olig2 phosphorylation assay, GST-Olig2 fusion protein (3.7 μg) was incubated with 200 nM CK2α, in the absence or presence of 50 μM compound 1 and increasing concentrations of CK2β. Samples were analyzed by SDS PAGE and subjected to autoradiography. Phosphoproteins were quantified by densitometry scanning. For eIF2 peptide phosphorylation assay, the CK2β-dependent peptide substrate (600 μM) was incubated with CK2α (40–50 nM) and increasing concentrations of compound 1 or/and CK2β.
Fig. S3. Compound 1 inhibits CK2β-dependent phosphorylation of Olig2 transcription factor and CK2β-dependent autophosphorylation. (a) CK2α (200 nM) was incubated with increasing concentrations of CK2β in the absence or presence of compound 1 (50 μM) followed by the addition of GST-Olig2 (3.7 μg), [γ^32P]-ATP (100 μM, 1 μCi) and MgCl2 (10 mM). Samples were analyzed by SDS PAGE and subjected to autoradiography. Left and right parts of the image are from the same gel (see Supplementary Fig. S16). (b) ^32P incorporated into GST-Olig2 was determined by densitometry scanning and is expressed as arbitrary units; (c) CK2β (300 nM) was incubated with increasing concentrations of compound 1, 10 μM [γ^32P] […] Phosphorylated proteins were separated by SDS/PAGE and analyzed by autoradiography (c) or Coomassie Blue staining (d); ^32P incorporation into CK2β was quantified and expressed as arbitrary units (e). […]

CK2 holoenzyme = target: T2, CK2 holoenzyme (Homo sapiens, UniProt P68400); assay: Autophosphorylation of CK2β by CK2 holoenzyme; type: biochemical; conditions: increasing concentrations of compound
T2 construct: made in house; host or cells: Escherichia coli (CK2α)
T2 sequence (P68400 whole entry): as above
Description: Fig. S3. Compound 1 inhibits CK2β-dependent phosphorylation of Olig2 transcription factor and CK2β-dependent autophosphorylation. (a) CK2α (200 nM) was incubated with increasing concentrations of CK2β in the absence or presence of compound 1 (50 μM) followed by the addition of GST-Olig2 (3.7 μg), [γ^32P]-ATP (100 μM, 1 μCi) and MgCl2 (10 mM). Samples were analyzed by SDS PAGE and subjected to autoradiography. Left and right parts of the image are from the same gel (see Supplementary Fig. S16). (b) ^32P incorporated into GST-Olig2 was determined by densitometry scanning and is expressed as arbitrary units; (c) CK2β (300 nM) was incubated with increasing concentrations of compound 1, 10 μM [γ^32P] ATP and 10 mM MgCl2. Autophosphorylation was initiated by the addition of 300 nM CK2α. Phosphorylated proteins were separated by SDS/PAGE and analyzed by autoradiography (c) or Coomassie Blue staining (d); ^32P incorporation into CK2β was quantified and expressed as arbitrary units (e). Uncropped blots are shown in Supplementary Fig. S16.

Chain of CK2α/CK2β interaction (P68400 whole entry): as above

COc1[nH]c2ccc(F)cc2c1C(=O)OCC1CCN(CCNS(C)(=O)=O)CC1 [Compound 1]
reduction of SPR signal (MBP-CK2β binding to GST-CK2α) (CK2α/CK2β interaction): about 60%
decrease in Olig-2 phosphorylation (CK2α2β2 holoenzyme): ~ 50%
autophosphorylation of CK2β (CK2 holoenzyme): dose-dependent decrease
